{"source": "patent US8557796B2", "about": "“Substituted 1-oxa-2,8-diaza-spiro [4,5] dec-2-ene derivatives and related treatment methods” (Gruenenthal GmbH, priority 2001, dated 2013)"}
{"tested_on": "batrachotoxin (BTX) binding site (binding site 2) of the sodium channel", "assay": "Bond test on the sodium channel, binding site 2 (BTX bond), [3H]-batrachotoxinin A20 α-benzoate displacement", "settings": "rat cerebrocortex synaptosomes", "units": {"BTX bond, 10 μM, % inhibition": "%"}}
{"molecule": "O=C(NCCCc1ccccc1)C1=NOC2(CCN(S(=O)(=O)c3ccc(F)cc3)CC2)C1", "note": "[Example 193, 8-(4-fluoro-benzenesulphonyl)-1-oxa-2,8-diaza-spiro[4,5]dec-2-ene-3-carboxylic acid (3-phenyl-propyl)-amide]", "BTX bond, 10 μM, % inhibition": 66}
{"molecule": "O=C(NC1CCN(Cc2ccc(C(F)(F)F)cc2)C1)C1=NOC2(CCN(S(=O)(=O)c3cccs3)CC2)C1", "note": "(stereo not shown) [Example 26, 8-(thiophene-2-sulphonyl)-1-oxa-2,8-diaza-spiro[4,5]dec-2-ene-3-carboxylic acid [1-(4-trifluoromethyl-benzyl)-pyrrolidin-3-yl]-amide]", "BTX bond, 10 μM, % inhibition": 84}
{"molecule": "CN(C)S(=O)(=O)N1CCC2(CC1)CC(C(=O)N1CCN(C3CCCCCC3)CC1)=NO2", "note": "[Example 144, 3-(4-cycloheptyl-piperazine-1-carbonyl)-1-oxa-2,8-diaza-spiro[4,5]dec-2-ene-8 sulphonic acid dimethylamide]", "BTX bond, 10 μM, % inhibition": 53}
{"molecule": "O=C(NCc1cccs1)C1=NOC2(CCN(C(=O)c3cccc4ccccc34)CC2)C1", "note": "[Example 192, 8-(naphthalene-1-carbonyl)-1-oxa-2,8-diaza-spiro[4,5]dec-2-ene-3-carboxylic acid (thiophen-2-ylmethyl)-amide]", "BTX bond, 10 μM, % inhibition": 87}
{"molecule": "Cc1ccc(F)cc1S(=O)(=O)N1CCC2(CC1)CC(C(=O)NCCN(C)C)=NO2", "note": "[Example 37, 8-(5-fluoro-2-methyl-benzenesulphonyl)-1-oxa-2,8-diaza-spiro[4,5]dec-2-ene-3-carboxylic acid (2-dimethylamino-ethyl)-amide]", "BTX bond, 10 μM, % inhibition": 70}
{"molecule": "O=C(NC1CCN(Cc2ccc3ccccc3c2)C1)C1=NOC2(CCN(S(=O)(=O)c3ccc(Cl)s3)CC2)C1", "note": "(stereo not shown) [Example 50, 8-(5-chloro-thiophene-2-sulphonyl)-1-oxa-2,8-diaza-spiro[4,5]dec-2-ene-3 carboxylic acid (1-naphthalen-2-ylmethyl-pyrrolidin-3-yl)-amide]", "BTX bond, 10 μM, % inhibition": 87}
{"molecule": "O=C(C1=NOC2(CCN(S(=O)(=O)c3ccc(F)cc3)CC2)C1)N1CCN(CCCc2ccccc2)CC1", "note": "[Example 186, [8-(4-fluoro-benzenesulphonyl)-1-oxa-2,8-diaza-spiro[4,5]dec-2-en-3-yl]-[4-(3-phenyl-propyl)-piperazin-1-yl]-methanone]", "BTX bond, 10 μM, % inhibition": 56}
{"molecule": "CCOC(=O)C1CCCCN1C(=O)C1=NOC2(CCN(S(=O)(=O)c3ccc(Cl)s3)CC2)C1", "note": "(stereo not shown) [Example 155, 1-[8-(5-chloro-thiophene-2-sulphonyl)-1-oxa-2,8-diaza-spiro[4,5]dec-2-ene-3-carbonyl]-piperidine-2-carboxylic acid ethyl ester]", "BTX bond, 10 μM, % inhibition": 48}
{"molecule": "O=C(C1=NOC2(CCN(S(=O)(=O)c3cc(Cl)ccc3Cl)CC2)C1)N(CCc1ccccc1)Cc1ccccc1", "note": "[Example 98, 8-(2,5-dichloro-benzenesulphonyl)-1-oxa-2,8-diaza-spiro[4,5]dec-2-ene-3-carboxylic acid benzyl-phenethyl-amide]", "BTX bond, 10 μM, % inhibition": 56}
{"molecule": "O=C(NC1CCCC1OCc1ccccc1)C1=NOC2(CCN(S(=O)(=O)c3ccc(Cl)s3)CC2)C1", "note": "(stereo not shown) [Example 191]", "BTX bond, 10 μM, % inhibition": 75}
{"molecule": "Cc1onc(-c2c(F)cccc2Cl)c1C(=O)N1CCC2(CC1)CC(C(=O)NCc1ccccc1)=NO2", "note": "[Example 177, 8-[3-(2-chloro-6-fluorophenyl)-5-methyl-isoxazole-4-carbonyl]-1-oxa-2,8-diaza-spiro [4,5]dec-2-ene-3-carboxylic acid benzylamide]", "BTX bond, 10 μM, % inhibition": 45}
{"molecule": "O=C(NCc1cccc(F)c1)C1=NOC2(CCN(S(=O)(=O)c3cccs3)CC2)C1", "note": "[Example 24, 8-(thiophene-2-sulphonyl)-1-oxa-2,8-diaza-spiro[4,5]dec-2-ene-3-carboxylic acid 3-fluorobenzylamide]", "BTX bond, 10 μM, % inhibition": 41}
{"tested_on": "batrachotoxin (BTX) binding site (binding site 2) of the sodium channel", "assay": "Bond test on the sodium channel, binding site 2 (BTX bond), [3H]-batrachotoxinin A20 α-benzoate displacement", "settings": "rat cerebrocortex synaptosomes, 10 µM", "units": {"BTX bond, 10 μM, % inhibition": "%"}}
{"molecule": "COc1ccc(S(=O)(=O)N2CCC3(CC2)CC(C(=O)NC2CCCC2OCc2ccccc2)=NO3)cc1", "note": "(stereo not shown) [Example 121, 8-(4-methoxy-benzenesulphonyl)-1-oxa-2,8-diaza-spiro[4,5]dec-2-ene-3-carboxylic acid (2-benzyloxy-cyclopentyl)-amide]", "BTX bond, 10 μM, % inhibition": 42}
